According to patent publication US20250353864A1, “INDAZOLE CONTAINING MACROCYCLES AND THEIR USE” (BLOSSOMHILL THERAPEUTICS, INC., priority 2022, published 2025):

Experiments:
Type in all cases: biochemical
[1] = target: EGFR Δ746-750 mutant (Homo sapiens (Human), UniProt P00533, DEL746-750); experiment: HotSpot radiometric kinase assay, EGFR Δ746-750 mutant; settings: 10 μM ATP
Outline: (§1)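 10 μM ATP (33P-labelled, final); 120 min RT; P81 filter capture, 0.75% phosphoric acid washes. Cpd preincubated ~20 min with enzyme/substrate, 20 mM Hepes pH 7.5, 10 mM MgCl2, 1% DMSO. IC50 by curve fit.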

[2] = target: EGFR (D770_N771insNPG) (Homo sapiens (Human), UniProt P00533, INS770NPG); experiment: HotSpot radiometric kinase assay, EGFR (D770_N771insNPG); settings: 10 μM ATP, read-out: EGFR (Δ770_N771insNPG) IC50
Sequence of EGFR (D770_N771insNPG) (P00533 other isoform, or with tags, fused parts or gaps del 1-668/ins NPG behind 770 limits assumed): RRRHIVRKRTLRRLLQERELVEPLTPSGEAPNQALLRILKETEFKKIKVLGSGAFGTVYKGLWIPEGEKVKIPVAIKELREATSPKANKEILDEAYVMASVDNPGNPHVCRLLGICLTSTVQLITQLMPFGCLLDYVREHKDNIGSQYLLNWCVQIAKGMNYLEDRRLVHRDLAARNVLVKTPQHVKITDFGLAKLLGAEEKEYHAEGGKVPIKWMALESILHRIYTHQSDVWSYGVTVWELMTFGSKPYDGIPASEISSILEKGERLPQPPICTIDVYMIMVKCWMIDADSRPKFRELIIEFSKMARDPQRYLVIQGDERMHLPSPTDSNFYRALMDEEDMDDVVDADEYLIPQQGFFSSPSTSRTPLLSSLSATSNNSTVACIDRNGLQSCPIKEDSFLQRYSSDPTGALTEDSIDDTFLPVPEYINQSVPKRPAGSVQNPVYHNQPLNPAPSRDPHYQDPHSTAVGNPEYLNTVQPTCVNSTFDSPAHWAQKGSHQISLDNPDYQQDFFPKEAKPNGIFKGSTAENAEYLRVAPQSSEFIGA
Outline: as §1

[3] = target: EGFR WT (Homo sapiens (Human), UniProt P00533); experiment: HotSpot radiometric kinase assay (Reaction Biology), EGFR WT; settings: 10 μM ATP
Sequence of EGFR WT (P00533 25-1210): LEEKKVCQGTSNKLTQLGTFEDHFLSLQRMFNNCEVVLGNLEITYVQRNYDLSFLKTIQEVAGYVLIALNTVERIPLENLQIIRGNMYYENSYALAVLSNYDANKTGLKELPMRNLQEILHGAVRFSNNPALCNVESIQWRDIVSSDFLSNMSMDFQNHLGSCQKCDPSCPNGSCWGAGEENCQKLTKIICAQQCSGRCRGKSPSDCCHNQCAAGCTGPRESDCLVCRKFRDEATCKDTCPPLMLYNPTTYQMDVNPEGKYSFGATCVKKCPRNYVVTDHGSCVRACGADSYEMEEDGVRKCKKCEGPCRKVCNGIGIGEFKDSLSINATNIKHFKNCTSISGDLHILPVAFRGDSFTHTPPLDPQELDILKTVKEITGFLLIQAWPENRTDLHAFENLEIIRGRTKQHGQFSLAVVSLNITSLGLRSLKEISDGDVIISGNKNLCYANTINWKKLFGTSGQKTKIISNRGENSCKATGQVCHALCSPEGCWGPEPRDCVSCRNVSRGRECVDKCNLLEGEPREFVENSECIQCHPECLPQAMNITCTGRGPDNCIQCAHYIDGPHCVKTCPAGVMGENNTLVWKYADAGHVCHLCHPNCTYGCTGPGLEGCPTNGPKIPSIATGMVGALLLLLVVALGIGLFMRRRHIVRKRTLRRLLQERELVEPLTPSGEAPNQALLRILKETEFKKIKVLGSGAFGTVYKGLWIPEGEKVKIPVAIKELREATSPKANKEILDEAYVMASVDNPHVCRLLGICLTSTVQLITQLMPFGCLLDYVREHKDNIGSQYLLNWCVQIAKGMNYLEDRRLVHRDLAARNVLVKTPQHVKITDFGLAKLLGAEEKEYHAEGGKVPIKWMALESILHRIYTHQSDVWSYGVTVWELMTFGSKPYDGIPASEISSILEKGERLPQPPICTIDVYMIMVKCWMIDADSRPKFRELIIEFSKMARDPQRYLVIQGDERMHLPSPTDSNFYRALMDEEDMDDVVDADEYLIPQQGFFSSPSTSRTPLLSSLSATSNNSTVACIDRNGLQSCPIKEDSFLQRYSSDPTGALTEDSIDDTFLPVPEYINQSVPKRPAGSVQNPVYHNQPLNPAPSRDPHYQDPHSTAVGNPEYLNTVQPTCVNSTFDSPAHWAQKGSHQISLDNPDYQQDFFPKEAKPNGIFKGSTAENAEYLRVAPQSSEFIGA
Outline: as §1

[4] = target: CLK3 (Homo sapiens (Human), UniProt P49761); experiment: Inhibition of CLK3 kinase activity evaluated at Nanosyn (ADP-Glo); settings: ADP-Glo luminescence
Outline: (§2)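 Percent inhibition derived from luminescent ADP detection (ADP-Glo), normalised to DMSO-only and enzyme-free wells. Reactions ran in HEPES pH 7.5 buffer with Mg2+, Triton X-100 and BSA, 1% DMSO, ATP-initiated, for an assay-specific time.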

[5] = target: CLK4 (Homo sapiens (Human), UniProt Q9HAZ1); experiment: Inhibition of CLK4 kinase activity evaluated at Nanosyn (ADP-Glo); settings: ADP-Glo luminescence
Sequence of CLK4 (Q9HAZ1 whole entry): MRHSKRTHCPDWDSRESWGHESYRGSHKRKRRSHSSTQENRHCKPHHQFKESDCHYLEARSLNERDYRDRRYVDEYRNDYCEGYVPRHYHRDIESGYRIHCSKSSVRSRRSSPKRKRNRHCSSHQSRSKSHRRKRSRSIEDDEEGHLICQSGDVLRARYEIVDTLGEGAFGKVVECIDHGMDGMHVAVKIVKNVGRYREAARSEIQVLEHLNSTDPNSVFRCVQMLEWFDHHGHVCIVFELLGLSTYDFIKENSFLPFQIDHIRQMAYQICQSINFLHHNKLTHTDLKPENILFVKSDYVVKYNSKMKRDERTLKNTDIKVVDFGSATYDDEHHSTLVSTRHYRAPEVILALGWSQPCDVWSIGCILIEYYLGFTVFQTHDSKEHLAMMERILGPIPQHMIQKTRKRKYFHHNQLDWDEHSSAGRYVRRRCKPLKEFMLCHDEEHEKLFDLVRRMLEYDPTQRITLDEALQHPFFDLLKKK
Outline: as §2

[6] = target: EGFR Δ746-750/C797S mutant (Homo sapiens (Human), UniProt P00533, C797S/DEL746-750); experiment: HotSpot radiometric kinase assay, EGFR Δ746-750/C797S mutant; settings: 10 μM ATP
Outline: as §1

[7] = target: EGFR L858R/T790M mutant (Homo sapiens (Human), UniProt P00533, L858R/T790M); experiment: HotSpot radiometric kinase assay, EGFR L858R/T790M mutant; settings: 10 μM ATP
Sequence of EGFR L858R/T790M mutant (P00533 25-1210 T790M/L858R): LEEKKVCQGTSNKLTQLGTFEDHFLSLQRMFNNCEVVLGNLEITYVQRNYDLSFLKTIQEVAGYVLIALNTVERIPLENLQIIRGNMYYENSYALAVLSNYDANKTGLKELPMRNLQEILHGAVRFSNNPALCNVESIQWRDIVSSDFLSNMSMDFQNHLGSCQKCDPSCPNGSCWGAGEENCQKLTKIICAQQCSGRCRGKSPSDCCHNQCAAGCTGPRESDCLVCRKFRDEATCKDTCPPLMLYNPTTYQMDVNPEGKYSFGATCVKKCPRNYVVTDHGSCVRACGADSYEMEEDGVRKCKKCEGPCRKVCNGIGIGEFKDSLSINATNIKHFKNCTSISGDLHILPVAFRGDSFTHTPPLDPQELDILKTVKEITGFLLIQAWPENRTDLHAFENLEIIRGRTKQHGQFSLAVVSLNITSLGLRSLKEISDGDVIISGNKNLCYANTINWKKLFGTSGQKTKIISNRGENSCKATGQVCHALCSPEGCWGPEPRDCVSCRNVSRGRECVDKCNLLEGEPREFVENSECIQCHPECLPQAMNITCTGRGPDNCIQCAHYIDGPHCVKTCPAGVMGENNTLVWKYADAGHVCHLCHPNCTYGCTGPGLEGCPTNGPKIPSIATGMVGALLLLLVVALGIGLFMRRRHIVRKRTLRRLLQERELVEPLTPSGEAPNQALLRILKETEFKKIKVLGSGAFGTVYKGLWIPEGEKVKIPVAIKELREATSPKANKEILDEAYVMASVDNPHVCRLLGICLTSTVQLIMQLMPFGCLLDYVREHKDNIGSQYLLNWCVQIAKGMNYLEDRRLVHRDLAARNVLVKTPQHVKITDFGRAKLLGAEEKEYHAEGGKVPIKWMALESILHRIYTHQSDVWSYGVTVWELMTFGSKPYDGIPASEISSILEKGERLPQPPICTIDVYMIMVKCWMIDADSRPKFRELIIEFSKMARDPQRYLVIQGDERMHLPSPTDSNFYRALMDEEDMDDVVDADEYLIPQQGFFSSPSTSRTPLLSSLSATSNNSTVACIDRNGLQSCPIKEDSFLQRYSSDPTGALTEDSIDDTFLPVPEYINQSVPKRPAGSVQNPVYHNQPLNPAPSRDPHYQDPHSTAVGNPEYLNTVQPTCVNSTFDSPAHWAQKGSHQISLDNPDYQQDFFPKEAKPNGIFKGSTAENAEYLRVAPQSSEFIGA
Outline: as §1

[8] = target: EGFR L858R/T790M/C797S mutant (Homo sapiens (Human), UniProt P00533, C797S/L858R/T790M); experiment: HotSpot radiometric kinase assay, EGFR L858R/T790M/C797S mutant; settings: 10 μM ATP
Outline: as §1

[9] = target: EGFR L858R mutant (Homo sapiens (Human), UniProt P00533, L858R); experiment: HotSpot radiometric kinase assay, EGFR L858R mutant; settings: 10 μM ATP
Outline: as §1

[10] = target: CLK2 (Homo sapiens (Human), UniProt P49760); experiment: Inhibition of CLK2 kinase activity evaluated at Nanosyn (ADP-Glo); settings: ADP-Glo luminescence
Sequence of CLK2 (P49760 whole entry): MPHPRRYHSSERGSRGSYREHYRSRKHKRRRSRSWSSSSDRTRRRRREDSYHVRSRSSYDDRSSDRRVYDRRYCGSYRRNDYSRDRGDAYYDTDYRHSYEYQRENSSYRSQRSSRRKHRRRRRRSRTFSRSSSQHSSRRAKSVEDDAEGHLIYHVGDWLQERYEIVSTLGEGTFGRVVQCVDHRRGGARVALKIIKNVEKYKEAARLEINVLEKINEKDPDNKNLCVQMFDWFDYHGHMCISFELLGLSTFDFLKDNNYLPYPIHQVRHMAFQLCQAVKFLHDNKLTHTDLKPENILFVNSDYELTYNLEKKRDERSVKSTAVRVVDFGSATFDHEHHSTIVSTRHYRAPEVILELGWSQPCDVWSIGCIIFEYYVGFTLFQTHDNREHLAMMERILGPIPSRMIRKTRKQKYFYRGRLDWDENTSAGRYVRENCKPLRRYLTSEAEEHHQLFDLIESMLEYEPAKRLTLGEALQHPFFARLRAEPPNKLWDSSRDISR
Outline: as §2

[11] = target: CLK1 (Homo sapiens (Human), UniProt P49759); experiment: Inhibition of CLK1 kinase activity evaluated at Nanosyn (ADP-Glo); settings: ADP-Glo luminescence
Sequence of CLK1 (P49759 whole entry): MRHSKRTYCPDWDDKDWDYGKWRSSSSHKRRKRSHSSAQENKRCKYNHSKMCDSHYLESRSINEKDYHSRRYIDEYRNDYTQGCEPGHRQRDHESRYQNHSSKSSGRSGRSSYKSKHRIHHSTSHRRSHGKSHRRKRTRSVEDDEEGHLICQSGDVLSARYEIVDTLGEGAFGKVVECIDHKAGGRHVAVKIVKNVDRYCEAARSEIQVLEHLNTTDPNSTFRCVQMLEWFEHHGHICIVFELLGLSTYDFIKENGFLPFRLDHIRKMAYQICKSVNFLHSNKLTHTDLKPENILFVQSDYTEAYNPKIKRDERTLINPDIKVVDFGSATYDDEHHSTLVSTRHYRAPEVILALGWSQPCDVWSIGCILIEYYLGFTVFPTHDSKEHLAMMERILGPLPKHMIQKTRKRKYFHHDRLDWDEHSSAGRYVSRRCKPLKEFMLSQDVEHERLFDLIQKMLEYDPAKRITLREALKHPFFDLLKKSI
Outline: as §2

Sequence of EGFR Δ746-750 mutant (P00533 other isoform, or with tags, fused parts or gaps del 1-668/del 746-750 limits assumed): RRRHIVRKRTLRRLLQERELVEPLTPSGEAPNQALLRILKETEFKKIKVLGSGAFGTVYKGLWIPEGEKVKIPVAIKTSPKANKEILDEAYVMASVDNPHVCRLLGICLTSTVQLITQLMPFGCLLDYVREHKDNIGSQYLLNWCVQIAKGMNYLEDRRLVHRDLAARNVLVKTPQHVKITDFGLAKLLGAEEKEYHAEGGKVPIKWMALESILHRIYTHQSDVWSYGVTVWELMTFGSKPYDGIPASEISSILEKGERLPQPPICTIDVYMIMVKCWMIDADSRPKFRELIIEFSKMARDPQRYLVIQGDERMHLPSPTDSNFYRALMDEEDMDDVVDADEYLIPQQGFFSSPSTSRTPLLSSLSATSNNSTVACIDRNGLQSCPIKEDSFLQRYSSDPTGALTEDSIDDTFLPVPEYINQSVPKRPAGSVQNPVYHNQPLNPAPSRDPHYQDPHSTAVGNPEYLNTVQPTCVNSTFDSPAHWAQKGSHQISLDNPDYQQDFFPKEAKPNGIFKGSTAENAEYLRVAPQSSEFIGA

| Compound | IC50 [1] | IC50 [2] | IC50 [3] | IC50 [4] | IC50 [5] | IC50 [6] | IC50 [7] | IC50 [8] | IC50 [9] | IC50 [10] | IC50 [11] |
| --- | --- | --- | --- | --- | --- | --- | --- | --- | --- | --- | --- |
| CCOc1nn(C)c2c1/C=C/c1n[nH]c3ccc(cc13)-c1cnn(C)c1OC1CN(C2)C1 [Example 238, (17E)-16-ethoxy-8,14-dimethyl-2,8,10,11,13,14-hexahydro-3,5-etheno-10,12-methanotripyrazolo[3,4-f:3′,4′-j:4″,3″-n][1,4]oxazacyclopentadecine] | 17.5 nM | 219 nM | 203 nM | 1000 nM | 1.07 nM | 41.3 nM | 10.2 nM | 11.7 nM | 73 nM | 2.44 nM | 0.9 nM |
| CCOc1nn(CCO)c2c1/C=C/c1n[nH]c3ccc(cc13)-c1cnn(C)c1O[C@@H](C)CN(CC)C2 [Example 177, 2-[(10S,17E)-16-ethoxy-12-ethyl-8,10-dimethyl-2,8,10,11,12,13-hexahydro-14H-3,5-ethenotripyrazolo[3,4-f:3′,4′-j:4″,3″-n][1,4]oxazacyclopentadecin-14-yl]ethan-1-ol] | 0.56 nM | 1.56 nM | 0.67 nM | 59.1 nM | 1.08 nM | 0.75 nM | 0.6 nM | 1.78 nM | 0.38 nM | 0.23 nM | 0.47 nM |
| CC(C)Oc1nn(CCO)c2c1/C=C/c1n[nH]c3cc(F)c(cc13)-c1cnn(C)c1O[C@@H]1CCCN(C2)C1 [Example 199, 2-[(10R,19E)-22-fluoro-8-methyl-18-[(propan-2-yl)oxy]-2,10,11,12,13,15-hexahydro-3,5-etheno-10,14-methanotripyrazolo[3,4-h:3′,4′-l:4″,3″- p][1,6]oxazacycloheptadecin-16(8H)-yl]ethan-1-ol] | 147 nM | > 1000 nM | 1280 nM | 19.3 nM | 1.79 nM | 42.5 nM | 64.4 nM | 43.9 nM | 87.8 nM | 2.29 nM | 1.05 nM |
| C[C@H]1CN(C)Cc2c(c(OCC(F)(F)F)nn2C)/C=C/c2n[nH]c3ccc(cc23)-c2cnn(C)c2O1 [Example 162, (10S,17E)-8,10,12,14-tetramethyl-16-(2,2,2-trifluoroethoxy)-2,10,11,12,13,14-hexahydro-8H-3,5-ethenotripyrazolo[3,4-f:3′,4′-j:4″,3″-n][1,4]oxazacyclopentadecine] | 30.5 nM | 523 nM | 238 nM | 784 nM | 0.25 nM | 33.5 nM | 1.4 nM | 0.9 nM | 47.4 nM | 0.07 nM | 0.11 nM |
| CCOc1nn([C@H](C)CO)c2c1/C=C/c1n[nH]c3ccc(cc13)-c1cnn(C)c1O[C@@H](C)CN(C)C2 [Example 171, (2R)-2-[(10S,17E)-16-ethoxy-8,10,12-trimethyl-2,8,10,11,12,13-hexahydro-14H-3,5-ethenotripyrazolo[3,4-f:3′,4′-j:4″,3″-n][1,4]oxazacyclopentadecin-14-yl]propan-1-ol] | 38.3 nM | 86 nM | 67.2 nM | 977 nM | 0.57 nM | 8.74 nM | 0.5 nM | 1.32 nM | 7.5 nM | 0.62 nM | 0.85 nM |
| Cc1c2c(nn1C)/C=C/c1n[nH]c3ccc(cc13)-c1cnn(C)c1O[C@@H](C)CN(C(C)C)C2 [Example 233, (10S,17E)-8,10,14,15-tetramethyl-12-(propan-2-yl)-2,10,11,12,13,15-hexahydro-8H-3,5-ethenotripyrazolo[4,3-f:3′,4′-j:4″,3″- n][1,4]oxazacyclopentadecine] | 10.7 nM | 256 nM | 151 nM | 403 nM | 0.89 nM | 25 nM | 1.32 nM | 1.61 nM | 41.5 nM | 0.43 nM | 0.71 nM |
| CCOc1nn(CCO)c2c1/C=C/c1n[nH]c3cc(F)c(cc13)-c1cnn(C)c1O[C@@H](C)CN(C)C2 [Example 172, 2-[(10S,17E)-16-ethoxy-19-fluoro-8,10,12-trimethyl-2,8,10,11,12,13-hexahydro-14H-3,5-ethenotripyrazolo[3,4-f:3′,4′-j:4″,3″- n][1,4]oxazacyclopentadecin-14-yl]ethan-1-ol] | 2.1 nM | 6.61 nM | 1.84 nM | 64.7 nM | 0.59 nM | 0.69 nM | 0.48 nM | 1.34 nM | 0.6 nM | 0.08 nM | 0.32 nM |
| CCOc1nn(CCO)c2c1/C=C/c1n[nH]c3ccc(cc13)-c1cnn(CC)c1O[C@@H](C)CN(C)C2 [Example 168, 2-[(10S,17E)-16-ethoxy-8-ethyl-10,12-dimethyl-2,8,10,11,12,13-hexahydro-14H-3,5-ethenotripyrazolo[3,4-f:3′,4′-j:4″,3″-n][1,4]oxazacyclopentadecin-14-yl]ethan-1-ol] | 5.96 nM | 13.9 nM | 16.6 nM | 238 nM | 0.77 nM | 1.38 nM | 0.72 nM | 2.72 nM | 1.88 nM | 0.33 nM | 0.39 nM |
| CC(C)Oc1nn(CCO)c2c1/C=C/c1n[nH]c3ccc(cc13)-c1cnn(C)c1O[C@H](C)CN(C(C)C)C2 [Example 193, 2-{(10R,17E)-8,10-dimethyl-12-(propan-2-yl)-16-[(propan-2-yl)oxy]-2,8,10,11,12,13-hexahydro-14H-3,5-ethenotripyrazolo[3,4-f:3′,4′-j:4″,3″-n][1,4]oxazacyclopentadecin-14-yl}ethan-1-ol] | 10.2 nM | 77.3 nM | 90.1 nM | 1000 nM | 21 nM | 5.92 nM | 2.42 nM | 1.05 nM | 36.6 nM | 45.4 nM | 31.8 nM |
| CC(C)Oc1nn(CCO)c2c1/C=C/c1n[nH]c3ccc(cc13)-c1cnn(C)c1O[C@@H](C)[C@H]1CCCN1C2 [Example 252, 2-[(8aR,9S,19E)-9,11-dimethyl-1-[(propan-2-yl)oxy]-7,8,8a,9,11,17-hexahydro-6H-14,16-ethenotripyrazolo[3,4-f:3′,4′-j:4″,3″-n]pyrrolo[2,1-c][1,4]oxazacyclopentadecin-3(4H)-yl]ethan-1-ol] | 1.31 nM | 15.7 nM | 4.74 nM | 168 nM | 1.59 nM | 2.29 nM | 1.91 nM | 5.35 nM | 2.38 nM | 0.42 nM | 0.83 nM |
| CCOc1nn([C@@H](C)CO)c2c1/C=C/c1n[nH]c3ccc(cc13)-c1cnn(C)c1O[C@@H](C)CN(C)C2 [Example 155] | 0.62 nM | 6.36 nM | 1.74 nM | 87.4 nM | 0.81 nM | 0.86 nM | 0.45 nM | 0.62 nM | 0.34 nM | 0.14 nM | 0.43 nM |
| Cc1nn(C)c2c1/C=C/c1n[nH]c3ccc(cc13)-c1cnn(C)c1O[C@@H](C)CN(C)[C@@H]2C (single isomer, unassigned) [Example 144] | 1.88 nM | 24.5 nM | 8.81 nM | 168 nM | 0.55 nM | 1.93 nM | 0.41 nM | 0.7 nM | 1.47 nM | 0.05 nM | 0.21 nM |
| COCc1nn(CCO)c2c1/C=C/c1n[nH]c3ccc(cc13)-c1cnn(C)c1O[C@@H](C)CN(C)C2 [Example 261, 2-[(10S,17E)-16-(methoxymethyl)-8,10,12-trimethyl-2,8,10,11,12,13-hexahydro-14H-3,5-ethenotripyrazolo[3,4-f:3′,4′-j:4″,3″-n][1,4]oxazacyclopentadecin-14-yl]ethan-1-ol] | 23.5 nM | 230 nM | 93.7 nM | 209 nM | 0.44 nM | 5.93 nM | 1.92 nM | 5.1 nM | 21.6 nM | 0.33 nM | 0.2 nM |
